Assay results: ChEMBL document CHEMBL1201862, “PubChem BioAssay data set” (2004)
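These data come from cells grown in 96-well plates and exposed to compound for 48 hours at five concentrations. At the GI50, growth is halved.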 The source made the active and inactive calls. No stated cut-off is given here; in the data, active = GI50 up to about 1.1 µM and inactive = higher.

Assays:
Assay in all cases: NCI tumour cell line growth inhibition, 48 h
SR = test system: SR
OVCAR-4 = test system: OVCAR-4
A549 = test system: A549
RPMI-8226 = test system: RPMI-8226
MDA-MB-231 = test system: MDA-MB-231
M14 = test system: M14
Hs-578T = test system: Hs-578T
PC-3 = test system: PC-3
SF-539 = test system: SF-539
HOP-92 = test system: HOP-92
NCI-H23 = test system: NCI-H23
786-0 = test system: 786-0
SK-MEL-28 = test system: SK-MEL-28
A498 = test system: A498
U-251 = test system: U-251
ACHN = test system: ACHN
SN12C = test system: SN12C
HCC 2998 = test system: HCC 2998

SMILES: S=C(Nc1ccc2cn[nH]c2c1)Nc1ccc2cn[nH]c2c1
- GI50 (SR): 25.8 µM (inactive)
- GI50 (OVCAR-4): > 100 µM (inactive)
- GI50 (A549): 96.8 µM (inactive)
- GI50 (RPMI-8226): 38 µM (inactive)
- GI50 (MDA-MB-231): > 100 µM (inactive)
- GI50 (M14): > 100 µM (inactive)
- GI50 (Hs-578T): > 100 µM (inactive)
- GI50 (PC-3): 48.5 µM (inactive)
- GI50 (SF-539): > 100 µM (inactive)
- GI50 (HOP-92): > 100 µM (inactive)
- GI50 (NCI-H23): 41.6 µM (inactive)
- GI50 (786-0): 98.2 µM (inactive)
- GI50 (SK-MEL-28): > 100 µM (inactive)
- GI50 (A498): 46 µM (inactive)
- GI50 (U-251): 57.4 µM (inactive)
- GI50 (ACHN): 51.8 µM (inactive)
- GI50 (SN12C): > 100 µM (inactive)
- GI50 (HCC 2998): 60.8 µM (inactive)

SMILES: CC(C)(CO[C@H]1C[C@H]2CC[C@@]1(C)C2(C)C)[N+](=O)[O-]
- GI50 (SR): 5.25 µM (inactive)
- GI50 (OVCAR-4): 30.3 µM (inactive)
- GI50 (A549): 25.5 µM (inactive)
- GI50 (RPMI-8226): 17.7 µM (inactive)
- GI50 (MDA-MB-231): 18.1 µM (inactive)
- GI50 (M14): 13.3 µM (inactive)
- GI50 (Hs-578T): 27.4 µM (inactive)
- GI50 (PC-3): 20.9 µM (inactive)
- GI50 (SF-539): 16.4 µM (inactive)
- GI50 (HOP-92): 14.6 µM (inactive)
- GI50 (NCI-H23): 25.9 µM (inactive)
- GI50 (786-0): 14.3 µM (inactive)
- GI50 (SK-MEL-28): 18.5 µM (inactive)
- GI50 (A498): 22.7 µM (inactive)
- GI50 (U-251): 16.7 µM (inactive)
- GI50 (ACHN): 33.6 µM (inactive)
- GI50 (SN12C): 27.4 µM (inactive)
- GI50 (HCC 2998): 2.07 µM (inactive)

SMILES: COc1ccc(CSC2=C(C#N)C(=O)NC3(CCCCC3)S2)cc1
- GI50 (SR): 71.3 µM (inactive)
- GI50 (OVCAR-4): 36.6 µM (inactive)
- GI50 (A549): > 83.8 µM (inactive)
- GI50 (RPMI-8226): > 56.6 µM (inactive)
- GI50 (MDA-MB-231): > 76.4 µM (inactive)
- GI50 (M14): 42.2 µM (inactive)
- GI50 (Hs-578T): 41.9 µM (inactive)
- GI50 (PC-3): 74.8 µM (inactive)
- GI50 (SF-539): > 56.6 µM (inactive)
- GI50 (HOP-92): > 55.7 µM (inactive)
- GI50 (NCI-H23): 48.8 µM (inactive)
- GI50 (786-0): 64.1 µM (inactive)
- GI50 (SK-MEL-28): > 73.6 µM (inactive)
- GI50 (A498): > 63.5 µM (inactive)
- GI50 (U-251): 48.4 µM (inactive)
- GI50 (ACHN): > 93.5 µM (inactive)
- GI50 (SN12C): 65.2 µM (inactive)
- GI50 (HCC 2998): 28.2 µM (inactive)

SMILES: O=C1/C(=C/c2ccccc2)CCc2ccc([N+](=O)[O-])cc21
- GI50 (SR): 4.26 µM (inactive)
- GI50 (OVCAR-4): 39.5 µM (inactive)
- GI50 (A549): > 100 µM (inactive)
- GI50 (RPMI-8226): 0.492 µM (active)
- GI50 (MDA-MB-231): 69.3 µM (inactive)
- GI50 (M14): 48.2 µM (inactive)
- GI50 (Hs-578T): 37.4 µM (inactive)
- GI50 (PC-3): 44.2 µM (inactive)
- GI50 (SF-539): 64.3 µM (inactive)
- GI50 (HOP-92): 81.5 µM (inactive)
- GI50 (NCI-H23): 34.7 µM (inactive)
- GI50 (786-0): 28.4 µM (inactive)
- GI50 (SK-MEL-28): > 81.8 µM (inactive)
- GI50 (A498): > 78.7 µM (inactive)
- GI50 (U-251): 27.1 µM (inactive)
- GI50 (ACHN): 40.4 µM (inactive)
- GI50 (SN12C): > 75.9 µM (inactive)
- GI50 (HCC 2998): > 88.3 µM (inactive)

SMILES: CC(=O)OCC12C(=O)C[C@@H](C)C3(CC(c4ccoc4)OC3=O)C1CCC(OC(C)=O)C21CO1 (stereo partly drawn)
- GI50 (SR): > 100 µM (inactive)
- GI50 (OVCAR-4): > 100 µM (inactive)
- GI50 (A549): > 100 µM (inactive)
- GI50 (RPMI-8226): > 100 µM (inactive)
- GI50 (MDA-MB-231): > 100 µM (inactive)
- GI50 (M14): > 100 µM (inactive)
- GI50 (Hs-578T): > 100 µM (inactive)
- GI50 (PC-3): > 100 µM (inactive)
- GI50 (SF-539): > 100 µM (inactive)
- GI50 (HOP-92): > 100 µM (inactive)
- GI50 (NCI-H23): > 100 µM (inactive)
- GI50 (786-0): > 100 µM (inactive)
- GI50 (SK-MEL-28): > 100 µM (inactive)
- GI50 (A498): > 100 µM (inactive)
- GI50 (U-251): > 100 µM (inactive)
- GI50 (ACHN): > 100 µM (inactive)
- GI50 (SN12C): > 100 µM (inactive)
- GI50 (HCC 2998): > 100 µM (inactive)

SMILES: O=S(=O)(O)C(CO)c1ccccc1.O=S(=O)(O)Cc1ccccc1 (stereo not drawn)
- GI50 (SR): > 100 µM (inactive)
- GI50 (OVCAR-4): > 100 µM (inactive)
- GI50 (A549): > 100 µM (inactive)
- GI50 (RPMI-8226): > 100 µM (inactive)
- GI50 (MDA-MB-231): > 100 µM (inactive)
- GI50 (M14): > 100 µM (inactive)
- GI50 (Hs-578T): 96.4 µM (inactive)
- GI50 (PC-3): > 100 µM (inactive)
- GI50 (SF-539): > 100 µM (inactive)
- GI50 (HOP-92): > 100 µM (inactive)
- GI50 (NCI-H23): > 100 µM (inactive)
- GI50 (786-0): > 100 µM (inactive)
- GI50 (SK-MEL-28): > 100 µM (inactive)
- GI50 (A498): > 100 µM (inactive)
- GI50 (U-251): > 100 µM (inactive)
- GI50 (ACHN): > 100 µM (inactive)
- GI50 (SN12C): > 100 µM (inactive)
- GI50 (HCC 2998): > 100 µM (inactive)

SMILES: CC1CC(C(=O)OC2OC(COC3OC(CO)C(OC4OC(C)C(O)C(O)C4O)C(O)C3O)C(O)C(O)C2O)C2CCC3(C)C(=CCC4(C)C3CCC3C(C)(CO)C(O)C(O)CC34C)C2C1C (stereo not drawn)
- GI50 (SR): 17.9 µM (inactive)
- GI50 (OVCAR-4): 15.1 µM (inactive)
- GI50 (A549): 96.6 µM (inactive)
- GI50 (RPMI-8226): 21.4 µM (inactive)
- GI50 (MDA-MB-231): 17.9 µM (inactive)
- GI50 (M14): 35.7 µM (inactive)
- GI50 (Hs-578T): 17.7 µM (inactive)
- GI50 (PC-3): 29.5 µM (inactive)
- GI50 (SF-539): 18.4 µM (inactive)
- GI50 (HOP-92): 17.4 µM (inactive)
- GI50 (NCI-H23): 16.3 µM (inactive)
- GI50 (786-0): 21 µM (inactive)
- GI50 (SK-MEL-28): 17 µM (inactive)
- GI50 (A498): > 10 µM (inactive)
- GI50 (U-251): 17.5 µM (inactive)
- GI50 (ACHN): > 10 µM (inactive)
- GI50 (SN12C): 20.7 µM (inactive)
- GI50 (HCC 2998): 21.8 µM (inactive)

SMILES: C[C@H]1CC(=O)C[C@@H]2CC[C@@H]3[C@H](CC[C@]4(C)C(OC(=O)c5cccc6c(=O)c7ccccc7[nH]c56)CC[C@@H]34)[C@]21C (stereo partly drawn)
- GI50 (SR): 4.8 µM (inactive)
- GI50 (OVCAR-4): 26.1 µM (inactive)
- GI50 (A549): 23.2 µM (inactive)
- GI50 (RPMI-8226): 11.1 µM (inactive)
- GI50 (MDA-MB-231): 23.6 µM (inactive)
- GI50 (M14): 30.6 µM (inactive)
- GI50 (Hs-578T): 46.8 µM (inactive)
- GI50 (PC-3): 14.8 µM (inactive)
- GI50 (SF-539): > 100 µM (inactive)
- GI50 (HOP-92): 16 µM (inactive)
- GI50 (NCI-H23): 30.6 µM (inactive)
- GI50 (786-0): 48 µM (inactive)
- GI50 (SK-MEL-28): 38.2 µM (inactive)
- GI50 (A498): 30.1 µM (inactive)
- GI50 (U-251): 33.1 µM (inactive)
- GI50 (ACHN): 34.4 µM (inactive)
- GI50 (SN12C): 46 µM (inactive)
- GI50 (HCC 2998): 47 µM (inactive)

SMILES: Clc1ccc(/C=C/c2nc(-c3ccc(Cl)cc3)cn3c2nc2ccccc23)cc1
- GI50 (SR): > 100 µM (inactive)
- GI50 (OVCAR-4): > 100 µM (inactive)
- GI50 (A549): > 100 µM (inactive)
- GI50 (RPMI-8226): > 100 µM (inactive)
- GI50 (MDA-MB-231): > 100 µM (inactive)
- GI50 (M14): > 100 µM (inactive)
- GI50 (Hs-578T): > 100 µM (inactive)
- GI50 (PC-3): > 100 µM (inactive)
- GI50 (SF-539): > 100 µM (inactive)
- GI50 (HOP-92): > 100 µM (inactive)
- GI50 (NCI-H23): > 100 µM (inactive)
- GI50 (786-0): > 100 µM (inactive)
- GI50 (SK-MEL-28): > 100 µM (inactive)
- GI50 (A498): > 100 µM (inactive)
- GI50 (U-251): > 100 µM (inactive)
- GI50 (ACHN): > 100 µM (inactive)
- GI50 (SN12C): > 100 µM (inactive)
- GI50 (HCC 2998): > 100 µM (inactive)

SMILES: COc1cccc2c(NNc3ccc(Cl)cc3)c3ccc([N+](=O)[O-])cc3nc12
- GI50 (SR): 1.08 µM (active)
- GI50 (OVCAR-4): 11.9 µM (inactive)
- GI50 (A549): 12.6 µM (inactive)
- GI50 (RPMI-8226): 14.3 µM (inactive)
- GI50 (MDA-MB-231): 12.7 µM (inactive)
- GI50 (M14): 12.3 µM (inactive)
- GI50 (Hs-578T): 14.5 µM (inactive)
- GI50 (PC-3): 8.91 µM (inactive)
- GI50 (SF-539): 17.7 µM (inactive)
- GI50 (HOP-92): 10.9 µM (inactive)
- GI50 (NCI-H23): 13.3 µM (inactive)
- GI50 (786-0): 8.97 µM (inactive)
- GI50 (SK-MEL-28): 39.7 µM (inactive)
- GI50 (A498): 12.9 µM (inactive)
- GI50 (U-251): 11.7 µM (inactive)
- GI50 (ACHN): 5.68 µM (inactive)
- GI50 (SN12C): 20.8 µM (inactive)
- GI50 (HCC 2998): 13.8 µM (inactive)

SMILES: CC1=CC(=O)c2cccc(NC3=NCCO3)c21
- GI50 (SR): 38.2 µM (inactive)
- GI50 (OVCAR-4): 78.7 µM (inactive)
- GI50 (A549): 81.7 µM (inactive)
- GI50 (RPMI-8226): 45.1 µM (inactive)
- GI50 (MDA-MB-231): 32.4 µM (inactive)
- GI50 (M14): 47.3 µM (inactive)
- GI50 (Hs-578T): 76.9 µM (inactive)
- GI50 (PC-3): 46.6 µM (inactive)
- GI50 (SF-539): 46.8 µM (inactive)
- GI50 (HOP-92): 36.1 µM (inactive)
- GI50 (NCI-H23): 43.5 µM (inactive)
- GI50 (786-0): 86.5 µM (inactive)
- GI50 (SK-MEL-28): 78.7 µM (inactive)
- GI50 (A498): 38 µM (inactive)
- GI50 (U-251): 64 µM (inactive)
- GI50 (ACHN): 86.7 µM (inactive)
- GI50 (SN12C): 52.7 µM (inactive)
- GI50 (HCC 2998): 33.4 µM (inactive)
